The results in this text go back to patent US7381746B2, “2-Aminobicyclo[3.1.0]hexane-2,6-dicarboxylic acid derivative” (Taisho Pharmaceutical Co., Ltd., priority 2003, dated 2008).

The structures appear in SMILES notation.

On to `N[C@]1(C(=O)O)[C@H]2[C@@H](C[C@H]1SCc1cccs1)[C@]2(F)C(=O)O` [Compound 1, (1R,2S,3R,5R,6R)-2-amino-3-(thiophene-2-ylmethylsulfanyl)-6-fluorobicyclo[3.1.0]hexane-2,6-dicarboxylic acid], for which the melting point was more than 230 °C.

The compound `N[C@]1(C(=O)O)[C@H]2[C@@H](C[C@H]1SCc1ccccc1-c1ccccc1)[C@]2(F)C(=O)O` [Compound 2, (1R,2S,3R,5R,6R)-2-amino-3-(2-phenylbenzylsulfanyl)-6-fluorobicyclo[3.1.0]hexane-2,6-dicarboxylic acid] showed a melting point of more than 230 °C.

Turning to `COc1ccc(CS[C@@H]2C[C@@H]3[C@H]([C@]2(N)C(=O)O)[C@@]3(F)C(=O)O)cc1` [Compound 3, (1R,2S,3R,5R,6R)-2-amino-3-(4-methoxybenzylsulfanyl)-6-fluorobicyclo[3.1.0]hexane-2,6-dicarboxylic acid], the melting point is more than 240 °C.

`N[C@]1(C(=O)O)[C@H]2[C@@H](C[C@H]1SCc1ccc(F)cc1)[C@]2(F)C(=O)O` [Compound 4, (1R,2S,3R,5R,6R)-2-amino-3-(4-fluorobenzylsulfanyl)-6-fluorobicyclo[3.1.0]hexane-2,6-dicarboxylic acid]: the melting point was more than 243 °C.

Turning to `CC(C)(C)c1ccc(CS[C@@H]2C[C@@H]3[C@H]([C@]2(N)C(=O)O)[C@@]3(F)C(=O)O)cc1` [Compound 5, (1R,2S,3R,5R,6R)-2-amino-3-(4-t-butylbenzylsulfanyl)-6-fluorobicyclo[3.1.0]hexane-2,6-dicarboxylic acid], the melting point was more than 271 °C.

Consider `N[C@]1(C(=O)O)[C@H]2[C@@H](C[C@H]1SCc1cccc(C(F)(F)F)c1)[C@]2(F)C(=O)O` [Compound 6, (1R,2S,3R,5R,6R)-2-amino-3-(3-trifluoromethylbenzylsulfanyl)-6-fluorobicyclo[3.1.0]hexane-2,6-dicarboxylic acid], for which the melting point was more than 271 °C.

Take `N[C@]1(C(=O)O)[C@H]2[C@@H](C[C@H]1SCc1ccc3ccccc3c1Br)[C@]2(F)C(=O)O` [Compound 7, (1R,2S,3R,5R,6R)-2-amino-3-(1-bromo-naphthalene-2-ylmethylsulfanyl)-6-fluorobicyclo[3.1.0]hexane-2,6-dicarboxylic acid]: the melting point is more than 280 °C.

In turn, `N[C@]1(C(=O)O)[C@@H]2[C@@H](C[C@H]1SCc1ccc(Cl)c(Cl)c1)[C@H]2C(=O)O` [Compound 8, (1R,2S,3R,5R,6R)-2-amino-3-(3,4-dichlorobenzylsulfanyl)-bicyclo[3.1.0]hexane-2,6-dicarboxylic acid] registered a melting point of more than 289 °C.

For `N[C@]1(C(=O)O)[C@H]2[C@@H](C[C@H]1SCc1ccc(Cl)c(Cl)c1)[C@]2(F)C(=O)O` [Compound 9, (1R,2S,3R,5R,6R)-2-amino-3-(3,4-dichlorobenzylsulfanyl)-6-fluorobicyclo[3.1.0]hexane-2,6-dicarboxylic acid], the melting point was more than 220 °C.

Take `N[C@]1(C(=O)O)[C@H]2[C@@H](C[C@H]1Sc1ccc(Cl)c(Cl)c1)[C@]2(F)C(=O)O` [Compound 12, (1R,2S,3R,5R,6R)-2-amino-3-(3,4-dichlorophenylsulfanyl)-6-fluorobicyclo[3.1.0]hexane-2,6-dicarboxylic acid]: the melting point was more than 235 °C.

Turning to `N[C@]1(C(=O)O)[C@H]2[C@@H](C[C@H]1SCc1c(F)ccc(Cl)c1F)[C@]2(F)C(=O)O` [Compound 13, (1R,2S,3R,5R,6R)-2-amino-3-(3-chloro-2,6-difluorobenzylsulfanyl)-6-fluorobicyclo[3.1.0]hexane-2,6-dicarboxylic acid], the melting point is more than 234 °C.

Compound `CC(S[C@@H]1C[C@@H]2[C@H]([C@]1(N)C(=O)O)[C@@]2(F)C(=O)O)c1ccccc1` (stereo partly drawn) [Compound 15, (1R,2S,3R,5R,6R)-2-amino-3-(1-phenyl-ethylsulfanyl)-6-fluorobicyclo[3.1.0]hexane-2,6-dicarboxylic acid] had a melting point of more than 307 °C.

`N[C@]1(C(=O)O)[C@H]2[C@@H](C[C@H]1SC(c1ccc(F)cc1)c1ccc(F)cc1)[C@]2(F)C(=O)O` [Compound 16, (1R,2S,3R,5R,6R)-2-amino-3-[bis-(4-fluorophenyl)methylsulfanyl]-6-fluorobicyclo[3.1.0]hexane-2,6-dicarboxylic acid] returned a melting point of more than 243 °C.

With `N[C@@H]1C[C@@H]2[C@H]([C@]1(N)C(=O)O)[C@@]2(F)C(=O)O` [Compound 17, (1R,2R,3R,5R,6R)-2,3-diamino-6-fluorobicyclo[3.1.0]hexane-2,6-dicarboxylic acid], the melting point is more than 256 °C.

`N[C@]1(C(=O)O)[C@H]2[C@@H](C[C@H]1NCc1ccc(Cl)c(Cl)c1)[C@]2(F)C(=O)O` [Compound 18, (1R,2R,3R,5R,6R)-2-amino-3-(3,4-dichlorobenzylamino)-6-fluorobicyclo[3.1.0]hexane-2,6-dicarboxylic acid] had a melting point of more than 190 °C.

The melting point is the temperature of the solid-liquid transition.
